Converted amounts (≈) assume the structure as drawn. The source made the active and inactive calls. The rule behind the calls is not given here.
Columns and labels:
Enterococcus faecalis = experiment: Antibacterial activity against Enterococcus faecalis assessed as bacterial growth inhibition incubated for 18 hrs by CLSI protocol based Mueller-Hinton broth assay; format: functional
[1] = tested on: Stenotrophomonas maltophilia; experiment: Antibacterial activity against Stenotrophomonas maltophilia assessed as bacterial growth inhibition incubated for 18 hrs by CLSI protocol based Mueller-Hinton broth assay; format: functional
Staphylococcus aureus [2] = experiment: Antibacterial activity against methicillin-resistant Staphylococcus aureus clinical isolates assessed as bacterial growth inhibition incubated for 18 hrs by CLSI protocol based Mueller-Hinton broth assay; format: functional
[3] = (§1) Hemolytic activity in sheep RBC assessed as hemolysis incubated for 1 hr by microplate reader method; format: toxicity, cell-based, Ovis aries, Erythrocyte; settings: sheep red blood cells
Escherichia coli = experiment: Antibacterial activity against Escherichia coli assessed as bacterial growth inhibition incubated for 18 hrs by CLSI protocol based Mueller-Hinton broth assay; format: functional
[4] = Selectivity index, ratio of HC50 for hemolytic activity in sheep RBC to MIC for antibacterial activity against methicillin-resistant Staphylococcus aureus assessed as bacterial growth inhibition; format: toxicity; settings: for selectivity ratio: sheep red blood cells; for Ratio: erythrocytes
Staphylococcus aureus [5] = experiment: Antibacterial activity against methicillin-resistant Staphylococcus aureus assessed as bacterial growth inhibition incubated for 18 hrs by CLSI protocol based Mueller-Hinton broth assay; format: functional
[6] = Cytotoxicity against HUVEC cells assessed as reduction in cell viability incubated for 72 hrs by CCK8 assay; format: toxicity, cell-based; settings: human
Erythrocyte = experiment: as §1; format: toxicity, cell-based, Ovis aries; settings: erythrocyte, 1 h
Staphylococcus aureus [7] = experiment: In vivo antibacterial activity against methicillin-resistant Staphylococcus aureus infected in SPF Kunming mouse assessed as reduction in neutrophils in skin tissue at 10 mg/kg ,ip administered every 12 hrs for 3 consecutive days; format: functional, organism-based; settings: time 3.0 day
Staphylococcus aureus [8] = experiment: In vivo antibacterial activity against methicillin-resistant Staphylococcus aureus infected in SPF Kunming mouse assessed as reduction in amount of bacteria measure per abscess at 5 mg/kg ,ip administered every 12 hrs for 3 consecutive days; format: functional; settings: time 3 day
Staphylococcus aureus [9] = experiment: Bactericidal activity against methicillin-resistant Staphylococcus aureus assessed as reduction in turbidity at 3 ug/ml measured after 6 hrs; format: functional, organism-based; settings: dose 3.0 µg/ml
Staphylococcus aureus [10] = experiment: In vivo antibacterial activity against methicillin-resistant Staphylococcus aureus infected in SPF Kunming mouse assessed as reduction in inflammation in skin tissue at 10 mg/kg ,ip administered every 12 hrs for 3 consecutive days; format: functional, organism-based; settings: time 3.0 day
Staphylococcus aureus [11] = experiment: Bactericidal activity against methicillin-resistant Staphylococcus aureus at 3 ug/ml measured after 12 hrs by time-killing kinetics assay; format: functional, organism-based; settings: dose 3.0 µg/ml
Staphylococcus aureus [12] = experiment: Antibacterial activity against methicillin-resistant Staphylococcus aureus assessed as resistance development by measuring increase in MIC measured after 14 days by resistance development assay (reference value: 1 ug/ml); format: functional; settings: 336 h, time 14 day
[13] = Enterococcus faecalis, 18 h, read-out: MIC
[14] = Stenotrophomonas maltophilia, read-out: MIC
[15] = Escherichia coli, 18 h, read-out: MIC
[16] = Staphylococcus aureus, read-out: MIC

SMILES	MIC (Enterococcus faecalis; [13]) [µg/mL]	MIC [1, 14] [µg/mL]	MIC (Staphylococcus aureus [2]) [µg/mL]	HC50 at 1 h [3] [µg/mL]	MIC (Escherichia coli; [15]) [µg/mL]	selectivity ratio [4]	MIC (Staphylococcus aureus [5]; [16]) [µg/mL]	further results
CCCCCCN(CCCOc1ccc2c(OCCCN(CCCCCC)C(=O)[C@@H](N)CCCCN)cccc2c1)C(=O)[C@@H](N)CCCN.Cl.Cl.Cl.Cl	2	2	0.5	612	2	306	2	–
C=C[C@]1(C)C[C@@H](OC(=O)CS[C@@H]2C[C@H]3CC[C@@H](C2)N3C)[C@]2(C)[C@H](C)CC[C@]3(CCC(=O)[C@H]32)[C@@H](C)[C@@H]1O [RETAPAMULIN]	–	–	–	–	–	–	–	CC50 at 72 h [6]: 25.5 µg/mL (≈ 49.2 µM)
CCCCCCCN(CCCOc1ccc(OCCCN(CCCCCCC)C(=O)[C@@H](N)CCCCN)cc1)C(=O)[C@@H](N)CCCCN.Cl.Cl.Cl.Cl	1	2	0.5	402	4	201	2	–
CC[C@H](C)[C@H](NC(=O)CN)C(=O)NCC(=O)N[C@@H](C)C(=O)N[C@H](C(=O)N[C@@H](CC(C)C)C(=O)N[C@@H](CCCCN)C(=O)N[C@H](C(=O)N[C@@H](CC(C)C)C(=O)N[C@H](C(=O)N[C@H](C(=O)NCC(=O)N[C@@H](CC(C)C)C(=O)N1CCC[C@H]1C(=O)N[C@@H](C)C(=O)N[C@@H](CC(C)C)C(=O)N[C@H](C(=O)N[C@@H](CO)C(=O)N[C@@H](Cc1c[nH]c2ccccc12)C(=O)N[C@H](C(=O)N[C@@H](CCCCN)C(=O)N[C@@H](CCCNC(=N)N)C(=O)N[C@@H](CCCCN)C(=O)N[C@@H](CCCNC(=N)N)C(=O)N[C@@H](CCC(N)=O)C(=O)N[C@@H](CCC(N)=O)C(N)=O)[C@@H](C)CC)[C@@H](C)CC)[C@@H](C)O)[C@@H](C)O)C(C)C)C(C)C [MELITTIN]	–	–	–	–	–	–	–	CC50 at 72 h [6]: 5.8 µg/mL (≈ 2.04 µM)
CCCCCCN(CCCCOc1ccc(OCCCCN(CCCCCC)C(=O)[C@@H](N)CCCCN)cc1)C(=O)[C@@H](N)CCCCN.Cl.Cl.Cl.Cl	4	4	0.5	868	4	217	4	–
CCCCCCCN(CCCOc1ccc2ccccc2c1-c1c(OCCCN(CCCCCCC)C(=O)[C@@H](N)CCCCN)ccc2ccccc12)C(=O)[C@@H](N)CCCCN.Cl.Cl.Cl.Cl (stereo in doubt; 8q)	–	–	–	–	–	–	–	MIC (Enterococcus faecalis; 18 h): 1 µg/mL; MIC [1]: 2 µg/mL; HC50 (Erythrocyte): 7 µg/mL; MIC (Escherichia coli): 2 µg/mL; Ratio [4]: 3.5; MIC (Staphylococcus aureus [5]): 2 µg/mL
CN[C@H](CC(C)C)C(=O)N[C@H]1C(=O)N[C@@H](CC(N)=O)C(=O)N[C@H]2C(=O)N[C@H]3C(=O)N[C@H](C(=O)N[C@H](C(=O)O)c4cc(O)cc(O)c4-c4cc3ccc4O)[C@H](O)c3ccc(c(Cl)c3)Oc3cc2cc(c3O[C@@H]2O[C@H](CO)[C@@H](O)[C@H](O)[C@H]2O[C@H]2C[C@](C)(N)[C@H](O)[C@H](C)O2)Oc2ccc(cc2Cl)[C@H]1O [VANCOMYCIN]	–	–	–	> 1000	–	–	–	Activity (Staphylococcus aureus [7]): Active; Activity (Staphylococcus aureus [8]): 14454.4 CFU; Activity (Staphylococcus aureus [9]): Active; Activity (Staphylococcus aureus [10]): Active; Activity (Staphylococcus aureus [11]): Active
CCCCCCCN(CCOc1ccc(OCCN(CCCCCCC)C(=O)[C@@H](N)CCCCN)cc1)C(=O)[C@@H](N)CCCCN.Cl.Cl.Cl.Cl	1	2	0.5	478	4	478	1	–
CCCCCCN(CCCOc1ccc(OCCCN(CCCCCC)C(=O)[C@@H](N)CCCCN)cc1)C(=O)[C@@H](N)CCCCN.Cl.Cl.Cl.Cl	4	16	0.5	> 1000	16	> 250	4	–
CCCCCCCCN(CCCOc1ccc2ccccc2c1-c1c(OCCCN(CCCCCCCC)C(=O)[C@@H](N)CCCCN)ccc2ccccc12)C(=O)[C@@H](N)CCCCN.Cl.Cl.Cl.Cl (stereo in doubt; 8r)	–	–	–	–	–	–	–	MIC (Enterococcus faecalis): 2 µg/mL; MIC [1]: 4 µg/mL; HC50 (Erythrocyte): 136 µg/mL; MIC (Escherichia coli; 18 h): 4 µg/mL; Ratio [4]: 34; MIC (Staphylococcus aureus [5]): 4 µg/mL
CCCCCCCN(CCCOc1cccc(OCCCN(CCCCCCC)C(=O)[C@@H](N)CCCCN)c1)C(=O)[C@@H](N)CCCCN.Cl.Cl.Cl.Cl	1	4	0.5	814	2	814	1	–
CCCCCCN(CCCOc1cccc(OCCCN(CCCCCC)C(=O)[C@@H](N)CCCCN)c1)C(=O)[C@@H](N)CCCCN.Cl.Cl.Cl.Cl	4	8	0.5	> 1000	16	> 500	2	–
CCCCCCN(CCCOc1cc2ccccc2cc1OCCCN(CCCCCC)C(=O)[C@@H](N)CCCCN)C(=O)[C@@H](N)CCCCN.Cl.Cl.Cl.Cl	1	4	0.5	> 1000	8	> 1000	1	–
CCCCCCN(CCCOc1ccc2ccccc2c1-c1c(OCCCN(CCCCCC)C(=O)[C@@H](N)CCCCN)ccc2ccccc12)C(=O)[C@@H](N)CCCCN.Cl.Cl.Cl.Cl (stereo in doubt; 8p)	–	–	–	–	–	–	–	MIC (Enterococcus faecalis): 1 µg/mL; MIC [1]: 1 µg/mL; HC50 (Erythrocyte): 117 µg/mL; MIC (Escherichia coli): 2 µg/mL; Ratio [4]: 117; MIC (Staphylococcus aureus [5]): 1 µg/mL
CCn1cc(C(=O)O)c(=O)c2cc(F)c(N3CCNCC3)cc21 [NORFLOXACIN]	–	–	–	–	–	–	–	MIC (Staphylococcus aureus [12]): 128 µg/mL (≈ 401 µM)
CCCCCCCN(CCCOc1ccc2ccccc2c1-c1c(OCCCN(CCCCCCC)C(=O)[C@@H](N)CCCCN)ccc2ccccc12)C(=O)[C@@H](N)CCCCN.Cl.Cl.Cl.Cl (stereo in doubt; 8n)	2	2	–	–	2	–	2	HC50 (Erythrocyte): 31 µg/mL; Ratio [4]: 15.5
CCCCCCCCCN(CCOc1ccc(OCCN(CCCCCCCCC)C(=O)[C@@H](N)CCCCN)cc1)C(=O)[C@@H](N)CCCCN.Cl.Cl.Cl.Cl	1	2	–	21	2	10.5	2	–
CCCCCCCN(CCCOc1ccccc1OCCCN(CCCCCCC)C(=O)[C@@H](N)CCCCN)C(=O)[C@@H](N)CCCCN.Cl.Cl.Cl.Cl	1	8	0.5	> 1000	16	> 500	2	–
CCCCCCCN(CCCCOc1ccc(OCCCCN(CCCCCCC)C(=O)[C@@H](N)CCCCN)cc1)C(=O)[C@@H](N)CCCCN.Cl.Cl.Cl.Cl	1	1	–	148	1	74	2	–
CCCCCCN(CCCOc1ccc2ccccc2c1-c1c(OCCCN(CCCCCC)C(=O)[C@@H](N)CCCCN)ccc2ccccc12)C(=O)[C@@H](N)CCCCN.Cl.Cl.Cl.Cl (stereo in doubt; 8m)	1	1	–	61	2	61	1	–
